In PubChem BioAssay AID743102 (Vanderbilt Specialized Chemistry Center, 2013):
Calls of active or inactive are those of the source.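 The calls were made as follows: active = human M5 calcium response above 60% of the acetylcholine maximum, marking a potentiator (some results past the limit were not filed as active); inactive = the rest.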

Molecular target: Muscarinic acetylcholine receptor M5 (Homo sapiens) (UniProt P08912)
Assay: human M5 potentiators of ACh EC20 response – cell-based, CHO-K1 hM5, Fluo-4 calcium flux, concentration-response, confirmation (AID 743102)
Settings: ACh EC20 PAM; for % ACh max response: at 30 µM (top of the series); for % ACh max: stronger effect = higher value

Muscarinic acetylcholine receptor M5 (Homo sapiens), sequence (P08912 whole entry, looked up): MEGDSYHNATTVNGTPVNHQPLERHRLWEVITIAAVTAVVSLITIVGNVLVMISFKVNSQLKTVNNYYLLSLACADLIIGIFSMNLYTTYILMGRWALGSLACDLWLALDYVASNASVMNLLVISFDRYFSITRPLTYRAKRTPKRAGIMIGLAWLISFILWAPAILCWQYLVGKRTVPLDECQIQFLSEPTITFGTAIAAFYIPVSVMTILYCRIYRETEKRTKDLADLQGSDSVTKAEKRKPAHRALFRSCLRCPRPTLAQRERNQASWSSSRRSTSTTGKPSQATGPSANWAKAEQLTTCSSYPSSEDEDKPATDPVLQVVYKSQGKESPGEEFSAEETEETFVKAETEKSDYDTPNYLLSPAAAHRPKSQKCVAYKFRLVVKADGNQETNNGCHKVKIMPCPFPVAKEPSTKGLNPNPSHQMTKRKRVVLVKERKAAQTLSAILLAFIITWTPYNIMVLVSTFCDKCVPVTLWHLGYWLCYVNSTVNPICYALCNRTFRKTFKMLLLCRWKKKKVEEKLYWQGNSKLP

Row | EC50 [µM] | Structure (SMILES) | further results
1 |  | O=C1N(Cc2ccccc2)CCC12CCN(S(=O)(=O)c1ccc3c(c1)OCCO3)CC2 | % ACh max response: inactive
2 |  | O=C(C1CCN(S(=O)(=O)c2ccc3cn[nH]c3c2)CC1)N(Cc1ccccc1C(F)(F)F)C1CC1 | % ACh max response: inactive
3 |  | O=C(NCc1ccccc1)C1CCN(S(=O)(=O)c2ccc3c(c2)OCCO3)CC1 | % ACh max response: inactive
4 |  | CCN(Cc1ccccc1)C(=O)C1CCN(S(=O)(=O)C2CC2)CC1 | % ACh max response: inactive
5 |  | CCN(Cc1ccccc1)C(=O)[C@H]1CCCN(S(=O)(=O)c2ccc(OC)cc2)C1 | % ACh max response: inactive
6 | 7.02 | CCN(Cc1ccccc1C#N)C(=O)C1CCN(S(=O)(=O)c2ccc3cn[nH]c3c2)CC1 | 
7 | 0.34 | CCN(Cc1ccccc1Cl)C(=O)C1CCN(S(=O)(=O)c2ccc3[nH]ncc3c2)CC1 | 
8 | 4.06 | CCN(C(=O)C1CCN(S(=O)(=O)c2ccc3[nH]ncc3c2)CC1)[C@H](C)c1ccccc1C(F)(F)F | 
9 |  | CN(C)C(=O)C1(Cc2ccccc2)CCN(S(=O)(=O)c2ccc3occc3c2)CC1 | % ACh max response: inactive
10 |  | CCN(Cc1ccccn1)C(=O)C1CCN(S(=O)(=O)c2ccc3cn[nH]c3c2)CC1 | % ACh max: inactive
11 |  | CCN(Cc1ccccc1)C(=O)C1CCN(S(C)(=O)=O)CC1 | % ACh max response: inactive
12 |  | CC(C)N(Cc1ccccc1C(F)(F)F)C(=O)C1CCN(S(=O)(=O)c2ccc3[nH]ncc3c2)CC1 | % ACh max: inactive
13 | 3.92 | CCN(Cc1ccccc1)C(=O)C1CCN(S(=O)(=O)c2ccc(Br)cc2)CC1 | 
14 |  | CCN(C(=O)Cc1ccccc1)C1CCN(S(=O)(=O)c2ccc(OC)cc2)CC1 | % ACh max response: inactive
15 | 1.32 | O=C(C1CCN(S(=O)(=O)c2ccc3[nH]ncc3c2)CC1)N(CCF)Cc1ccccc1C(F)(F)F | 
16 | 3.57 | CCN(Cc1ccccc1)C(=O)C1CCN(S(=O)(=O)c2ccc(OC)cc2)CC1 | 
17 | 7.09 | CCN(Cc1ccccc1OC)C(=O)C1CCN(S(=O)(=O)c2ccc3cn[nH]c3c2)CC1 | 
18 | 0.7 | CCN(C(=O)C1CCN(S(=O)(=O)c2ccc(-n3cccn3)cc2)CC1)[C@H](C)c1ccccc1 | 
19 |  | CCN(Cc1ccc(OC)cc1)C(=O)C1CCN(S(=O)(=O)c2ccc3cn[nH]c3c2)CC1 | % ACh max: inactive
20 | 1.08 | CCN(C(=O)C1CCN(S(=O)(=O)c2ccc(OC)cc2)CC1)[C@H](C)c1ccccc1 | 
21 |  | CCN(C(=O)C1CCN(S(=O)(=O)c2ccc3cn[nH]c3c2)CC1)C(C)c1ccccn1 (centres undefined) | % ACh max: inactive
22 | 0.43 | CCN(Cc1ccccc1Cl)C(=O)C1CCN(S(=O)(=O)c2ccc3cn[nH]c3c2)CC1 | 
23 | 5.05 | CCN(Cc1ccccc1)C(=O)C1CCN(S(=O)(=O)c2ccc(OC(F)F)cc2)CC1 | 
24 | 5.37 | CCN(Cc1ccccc1)C(=O)C1CCN(S(=O)(=O)c2ccccc2)CC1 | 
25 | 0.92 | CCN(C(=O)C1CCN(S(=O)(=O)c2ccc3occc3c2)CC1)[C@H](C)c1ccccc1 | 
26 | 1.4 | CCN(Cc1ccccc1)C(=O)C1CCN(S(=O)(=O)c2ccc3occc3c2)CC1 | 
27 | 1.26 | CCN(Cc1ccccc1C(F)(F)F)C(=O)C1CCN(S(=O)(=O)c2ccc(-n3cccn3)cc2)CC1 | 

Row | EC50 [µM] | Structure (SMILES) | further results
28 | 7.48 | CCN(Cc1ccccc1)C(=O)C1CCN(S(=O)(=O)c2ccc(C)s2)CC1 | 
29 |  | O=C(C1CCN(S(=O)(=O)c2ccc3c(c2)OCCO3)CC1)N1CCc2ccccc2C1 | % ACh max response: inactive
30 | 2.69 | CCN(Cc1cccc(OC)c1)C(=O)C1CCN(S(=O)(=O)c2ccc3cn[nH]c3c2)CC1 | 
31 | 3.25 | CCN(Cc1ccccc1)C(=O)C1CCN(S(=O)(=O)c2cccc(OC)c2)CC1 | 
32 | 0.42 | CCN(Cc1ccccc1C(F)(F)F)C(=O)C1CCN(S(=O)(=O)c2ccc3cn[nH]c3c2)CC1 | 
33 | 0.77 | CCN(C(=O)C1CCN(S(=O)(=O)c2ccc3[nH]ncc3c2)CC1)[C@H](C)c1ccccc1 | 
34 | 1.27 | CCN(Cc1cccc(F)c1)C(=O)C1CCN(S(=O)(=O)c2ccc3cn[nH]c3c2)CC1 | 
35 | 0.53 | [2H]C([2H])(C)N(C(=O)C1CCN(S(=O)(=O)c2ccc3cn[nH]c3c2)CC1)[C@H](C)c1ccccc1 | 
36 | 1.86 | C=CCN(Cc1ccccc1C(F)(F)F)C(=O)C1CCN(S(=O)(=O)c2ccc3[nH]ncc3c2)CC1 | 
37 |  | CCN(Cc1ccccc1)C(=O)C1CCN(S(=O)(=O)c2ccc(OC)c(OC)c2)CC1 | % ACh max: inactive
38 |  | CCN(Cc1ccccc1C(F)(F)F)C(=O)C1C2CN(S(=O)(=O)c3ccc4[nH]ncc4c3)CC21 (centres undefined) | % ACh max response: inactive
39 |  | COc1ccc(S(=O)(=O)N2CCC(C(=O)N(C)Cc3ccccc3)CC2)cc1 | % ACh max: inactive
40 |  | CCN(Cc1ccccc1)C(=O)[C@@H]1CCCN(S(=O)(=O)c2ccc(OC)cc2)C1 | % ACh max response: inactive
41 | 2.08 | CCN(Cc1ccccc1F)C(=O)C1CCN(S(=O)(=O)c2ccc3cn[nH]c3c2)CC1 | 
42 | 3.43 | CCN(Cc1ccccc1OC(F)(F)F)C(=O)C1CCN(S(=O)(=O)c2ccc3cn[nH]c3c2)CC1 | 
43 | 12.3 | CCN(Cc1ccccc1)C(=O)C1CCN(S(=O)(=O)c2ccc3c(c2)OCCO3)CC1 | 
44 |  | CCN(C(=O)C1CCN(S(=O)(=O)c2ccc(OC)cc2)CC1)[C@@H](C)c1ccccc1 | % ACh max response: inactive
45 | 4.81 | CCN(Cc1ccccc1)C(=O)C1CCN(S(=O)(=O)c2cccc(Cl)c2)CC1 | 
46 | 3.98 | CCN(Cc1ccccc1)C(=O)C1CCN(S(=O)(=O)c2cccc(OC(F)F)c2)CC1 | 
47 | 0.76 | CCN(C(=O)C1CCN(S(=O)(=O)c2ccc3c(c2)CCC3)CC1)[C@H](C)c1ccccc1 | 
48 |  | CCN(Cc1cccc(C#N)c1)C(=O)C1CCN(S(=O)(=O)c2ccc3cn[nH]c3c2)CC1 | % ACh max: inactive
49 |  | CCN(Cc1ccccc1)C(=O)C1CCN(S(=O)(=O)c2ccc3ncccc3c2)CC1 | % ACh max: inactive
50 | 3.23 | CCCc1ccc(S(=O)(=O)N2CCC(C(=O)N(CC)Cc3ccccc3)CC2)cc1 | 
51 | 0.98 | CCN(C(=O)C1CCN(S(=O)(=O)c2ccc3c(c2)CCO3)CC1)[C@H](C)c1ccccc1 | 
52 | 0.43 | CCN(Cc1ccccc1C(F)(F)F)C(=O)C1(F)CCN(S(=O)(=O)c2ccc3[nH]ncc3c2)CC1 | 
53 |  | O=C(C1CCN(S(=O)(=O)c2ccc3[nH]ncc3c2)CC1)N(Cc1ccccc1C(F)(F)F)C1CC1 | % ACh max response: inactive
54 | 6.1 | CCN(Cc1ccccc1)C(=O)C1CCN(S(=O)(=O)c2ccc(OC(F)(F)F)cc2)CC1 | 

Row | EC50 [µM] | Structure (SMILES) | further results
55 |  | COc1ccc(S(=O)(=O)N2CCC(C(=O)NCc3ccccc3)CC2)cc1 | % ACh max response: inactive
56 | 5.45 | CCN(Cc1ccccc1)C(=O)C1CCN(S(=O)(=O)c2ccc(C)cc2)CC1 | 
57 | 1.67 | CCN(Cc1cccc(Cl)c1)C(=O)C1CCN(S(=O)(=O)c2ccc3cn[nH]c3c2)CC1 | 
58 |  | CCN(Cc1cccc(C(F)(F)F)c1)C(=O)C1CCN(S(=O)(=O)c2ccc3cn[nH]c3c2)CC1 | % ACh max: inactive
59 | 5.23 | CCN(Cc1ccccc1)C(=O)C1CCN(S(=O)(=O)c2ccc3nsnc3c2)CC1 | 
60 |  | CCN(Cc1ccccc1)C(=O)C1CCN(S(=O)(=O)c2cccc3c2OCCO3)CC1 | % ACh max: inactive
61 |  | O=C(C1CCN(S(=O)(=O)c2ccc3[nH]ncc3c2)CC1)N(CCO)Cc1ccccc1C(F)(F)F | % ACh max: inactive
62 | 0.16 | CCCN(Cc1ccccc1C(F)(F)F)C(=O)C1CCN(S(=O)(=O)c2ccc3[nH]ncc3c2)CC1 | 
63 |  | CCN(Cc1ccccc1C(F)(F)F)C(=O)C1CN(S(=O)(=O)c2ccc3[nH]ncc3c2)C1 | % ACh max response: inactive
64 |  | CCN(Cc1ccccc1)C(=O)C1CCN(S(=O)(=O)c2ccc(N3CCOCC3)nc2)CC1 | % ACh max: inactive
65 | 0.23 | CCN(Cc1ccccc1C(F)(F)F)C(=O)C1CCN(S(=O)(=O)c2ccc3[nH]ncc3c2)CC1 | 
66 | 0.94 | CCN(Cc1ccccc1C)C(=O)C1CCN(S(=O)(=O)c2ccc3cn[nH]c3c2)CC1 | 
67 | 0.83 | CCN(C(=O)C1CCN(S(=O)(=O)c2ccc3cn[nH]c3c2)CC1)[C@H](C)c1ccccc1 | 
68 | 2.09 | CCN(Cc1ccccc1)C(=O)C1CCN(S(=O)(=O)c2ccc3cn[nH]c3c2)CC1 | 
69 |  | CCN(C(=O)Cc1ccccc1)C1CCN(S(=O)(=O)c2ccc3c(c2)OCCO3)CC1 | % ACh max response: inactive
70 |  | CCN(C(=O)C1CCN(S(=O)(=O)c2ccc3occc3c2)CC1)[C@H](C)c1ccccc1C(F)(F)F | % ACh max response: inactive
71 | 1 | CCN(Cc1cccc(C)c1)C(=O)C1CCN(S(=O)(=O)c2ccc3cn[nH]c3c2)CC1 | 
72 |  | CCN(Cc1ccccc1)C(=O)C1CCN(S(=O)(=O)c2cccc(C(F)(F)F)c2)CC1 | % ACh max: inactive
73 | 3.75 | CCc1ccc(S(=O)(=O)N2CCC(C(=O)N(CC)Cc3ccccc3)CC2)cc1 | 
74 | 1.66 | CCN(Cc1ccccc1)C(=O)C1CCN(S(=O)(=O)c2ccc3[nH]ncc3c2)CC1 | 
75 | 6.55 | CCN(Cc1ccccc1)C(=O)C1CCN(S(=O)(=O)c2ccc(C(C)=O)cc2)CC1 | 
76 |  | COc1ccc(S(=O)(=O)N2CCC3(CCN(Cc4ccccc4)C3=O)CC2)cc1 | % ACh max response: inactive
77 |  | CCN(Cc1ccccc1)C(=O)C1CCN(S(=O)(=O)c2ccc(C(F)(F)F)cc2)CC1 | % ACh max: inactive
78 |  | C[C@@H](NC(=O)C1CCN(S(=O)(=O)c2ccc3[nH]ncc3c2)CC1)c1ccccc1 | % ACh max response: inactive
79 | 2.54 | CCN(C(=O)C1CCN(S(=O)(=O)c2cc(F)c(F)c(F)c2)CC1)[C@H](C)c1ccccc1 | 
